This experiment deals with T1, full length active recombinant SYK enzyme (Homo sapiens, UniProt P43405).
T1 construct: full length active recombinant SYK enzyme (Millipore, Calif.); purchased Millipore
In words: Inhibition of Syk tyrosine phosphorylation activity (LANCE TR-FRET kinase assay). The experiment is classed as biochemical. As to conditions: 1 nM active SYK enzyme, 550 nM SYK-substrate, 100 μM ATP, 1 hour at room temperature. As for the experimental part:
The in vitro and in vivo human Syk activities of the inventive compounds can be determined by various procedures known in the art, such as a test for their ability to inhibit the activity of human plasma Syk.
Inhibition of Syk Tyrosine Phosphorylation Activity
SYK tyrosine phosphorylation activity is measured using the LANCE™ Technology developed by Perkin Elmer Life and Analytical Sciences (Boston, Mass.). LANCE™ refers to homogeneous time resolved fluorometry applications using techniques such as time-resolved fluorescence resonance energy transfer assay (TR-FRET) (see generally for procedures in Perkin Elmer Application Note—How to Optimize a Tyrosine Kinase Assay Using Time Resolved Fluorescence-Based LANCE Detection, wwww.perkinelmer.com/lifesciences). The assay principle involves detection of a phosphorylated substrate using energy transfer from a phosphospecific europium-labeled antibody to streptavidin-allophycocyanin as an acceptor.
Molecules are reconstituted in 30% DMSO and serially diluted 1:3 with the final dilution containing DMSO in the absence of the candidate molecule. The final DMSO concentration in the assay is 3%. Kinase assays are performed as a two part reaction. […] The second reaction involves termination of the kinase reaction and the simultaneous addition of the detection reagents-europium-labeled anti-phosphotyrosine reagent (Eu-W1024-PY100, Perkin Elmer, Boston, Mass.) and Streptavidin-Allophycocyanin detection reagent (SA-APC, Prozyme, CA). The kinase reaction is performed in a black U-bottom 96-well microtitre plate. […] The reaction is allowed to proceed for 1 hour at room temperature. The quench buffer contains 100 mM Tris pH 7.5, 300 mM […], 20 mM EDTA, 0.02% Brij35, and 0.5% BSA. The detection reagents are added to the reaction mixture at the following dilutions-1:500 for Eu-W1024-PY100 and 1:250 for SA-APC. The kinase reaction is terminated by the addition of 50 μL quench buffer containing the detection reagents. The detection is allowed to proceed for 1 hr at room temperature. Detection of the phosphorlated substrate in the absence and presence of inhibitors is measured in the TR-FRET instrument, Analyst HT (Molecular Probes, Sunnyvale, Calif.) and the condition for measurements are set up using CriterionHost Release 2.0 (Molecular Probes, Sunnyvale, Calif.). […] IC50s were derived by non-linear regression analysis.
A general note: Time-resolved FRET reads energy transfer from a long-lived donor to a nearby acceptor.
Broadly, the IC50 is the point on the concentration scale where inhibition reaches its midpoint. `Cn1ccc2cc(Nc3nc(N[C@H]4CN[C@@H](CO)C4)nnc3C(N)=O)cnc21` [Example 153, 3-(((3R,5R)-5-(hydroxymethyl)pyrrolidin-3-yl)amino)-5-((1-methyl-1H-pyrrolo[2,3-b]pyridin-5-yl)amino)-1,2,4-triazine-6-carboxamide]: the IC50 lay within 10 to 100 nM.

On to `Cc1ccc(Nc2nc(N[C@@H]3CCOC[C@@H]3N)nnc2C(N)=O)cc1C` [Example 145, 3-(((3R,4R)-3-aminotetrahydro-2H-pyran-4-yl)amino)-5-((3,4-dimethylphenyl)amino)-1,2,4-triazine-6-carboxamide], for which the IC50 was in the range of 1 to 10 nM.

As for `NC(=O)c1nnc(N[C@@H]2CCCC[C@@H]2N)nc1Nc1ccc(-n2cncn2)cc1` [Example 106, 5-((4-(1H-1,2,4-triazol-1-yl)phenyl)amino)-3-(((1R,2S)-2-aminocyclohexyl)amino)-1,2,4-triazine-6-carboxamide], the IC50 is 10 to 100 nM.

`NC(=O)c1nnc(N[C@@H]2CCCC(F)(F)[C@@H]2N)nc1Nc1ccc2c(c1)CCC2` [Example 213, 3-(((1R,2R)-2-amino-3,3-difluorocyclohexyl)amino)-5-((2,3-dihydro-1H-inden-5-yl)amino)-1,2,4-triazine-6-carboxamide]: the IC50 was 10 to 100 nM.

For the compound `Cc1ccc(Nc2nc(N[C@@H](C(N)=O)c3ccccc3)nnc2C(N)=O)cc1` [Example 191, (R)-3-(2-amino-2-oxo-1-phenylethylamino)-5-(p-tolylamino)-1,2,4-triazine-6-carboxamide], the IC50 is 100 to 1000 nM.

Take `CC[C@@H](Nc1nnc(C(N)=O)c(Nc2ccccc2)n1)C(N)=O` [Example 99, (R)-3-((1-amino-1-oxobutan-2-yl)amino)-5-(phenylamino)-1,2,4-triazine-6-carboxamide]: the IC50 lay within 100 to 1000 nM.

For the compound `Cc1ccc(Nc2nc(N[C@@H]3CCCC(F)(F)[C@@H]3N)nnc2C(N)=O)cc1Cl` [Example 219, 3-(((1R,2R)-2-amino-3,3-difluorocyclohexyl)amino)-5-((3-chloro-4-methylphenyl)amino)-1,2,4-triazine-6-carboxamide], the IC50 was in the range of 10 to 100 nM.

For the compound `Cn1cc(C#N)c2ccc(Nc3nc(N[C@H](CC4CC4)C(N)=O)nnc3C(N)=O)cc21` [Example 178, (R)-3-((1-amino-3-cyclopropyl-1-oxopropan-2-yl)amino)-5-((3-cyano-1-methyl-1H-indol-6-yl)amino)-1,2,4-triazine-6-carboxamide], the IC50 was 1 to 10 nM.

On to `CC[C@@H](Nc1nnc(C(N)=O)c(Nc2ccc(C(F)(F)F)c(C(F)(F)F)c2)n1)C(N)=O` [Example 135, (R)-3-((1-amino-1-oxobutan-2-yl)amino)-5-((3,4-bis(trifluoromethyl)phenyl)amino)-1,2,4-triazine-6-carboxamide], for which the IC50 was 10 to 100 nM.

Consider `CC[C@@H](Nc1nnc(C(N)=O)c(Nc2ccc(N(C)C)c(F)c2)n1)C(N)=O` [Example 162, (R)-3-((1-amino-1-oxobutan-2-yl)amino)-5-((4-(dimethylamino)-3-fluorophenyl)amino)-1,2,4-triazine-6-carboxamide], for which the half-maximal inhibitory concentration (IC50) was in the range of 10 to 100 nM.

Turning to `CC[C@@H](Nc1nnc(C(N)=O)c(Nc2ccc(OC)c(Cl)c2)n1)C(N)=O` [Example 174, (R)-3-((1-amino-1-oxobutan-2-yl)amino)-5-((3-chloro-4-methoxyphenyl)amino)-1,2,4-triazine-6-carboxamide], the IC50 lay within 10 to 100 nM.

For the compound `Cn1ccc2ccc(Nc3nc(N[C@@H]4CCCC(F)(F)[C@@H]4N)nnc3C(N)=O)cc21` [Example 166, 3-(((1R,2R)-2-amino-3,3-difluorocyclohexyl)amino)-5-((1-methyl-1H-indol-6-yl)amino)-1,2,4-triazine-6-carboxamide], the IC50 fell in the range of 10 to 100 nM.

Consider `NC(=O)c1nnc(N[C@H](CC2CC2)C(N)=O)nc1Nc1ccc(Cl)cc1` [Example 249, (R)-3-((1-amino-3-cyclopropyl-1-oxopropan-2-yl)amino)-5-((4-chlorophenyl)amino)-1,2,4-triazine-6-carboxamide], for which the IC50 was in the range of 10 to 100 nM.

Consider `NC(=O)c1nnc(N[C@@H]2CCOC[C@@H]2N)nc1Nc1cccc(-c2ncccn2)c1` [Example 71, 3-(((3R,4R)-3-aminotetrahydro-2H-pyran-4-yl)amino)-5-((3-(pyrimidin-2-yl)phenyl)amino)-1,2,4-triazine-6-carboxamide], for which the IC50 was 10 to 100 nM.

With `Cc1ccc(Nc2nc(N[C@@H]3CCCC(F)(F)[C@@H]3N)nnc2C(N)=O)cc1` [Example 167, 3-(((1R,2R)-2-amino-3,3-difluorocyclohexyl)amino)-5-(p-tolylamino)-1,2,4-triazine-6-carboxamide], the IC50 fell in the range of 10 to 100 nM.

With `NC(=O)c1nnc(N[C@@H]2CCCC[C@@H]2N)nc1Nc1cc(-c2ccc(F)cc2)on1` [Example 127, 3-(((1R,2S)-2-aminocyclohexyl)amino)-5-((5-(4-fluorophenyl)isoxazol-3-yl)amino)-1,2,4-triazine-6-carboxamide], the IC50 is 100 to 1000 nM.

As to `NC(=O)c1nnc(N[C@@H]2CCCC[C@@H]2N)nc1Nc1cccnc1` [Example 100, 3-(((1R,2S)-2-aminocyclohexyl)amino)-5-(pyridin-3-ylamino)-1,2,4-triazine-6-carboxamide], the IC50 lay within 10 to 100 nM.

For `CC[C@@H](Nc1nnc(C(N)=O)c(Nc2ccc(C)c(C)c2)n1)C(N)=O` [Example 203, (R)-3-((1-amino-1-oxobutan-2-yl)amino)-5-((3,4-dimethylphenyl)amino)-1,2,4-triazine-6-carboxamide], the IC50 was in the range of 10 to 100 nM.

As to `Cc1cc(Nc2nc(N[C@@H]3CCCC[C@@H]3N)nnc2C(N)=O)ccc1F` [Example 26, 3-(((1R,2S)-2-aminocyclohexyl)amino)-5-((4-fluoro-3-methylphenyl)amino)-1,2,4-triazine-6-carboxamide], the IC50 fell in the range of 1 to 10 nM.

As for `NC(=O)c1nnc(N[C@@H]2CCCC(F)(F)[C@@H]2N)nc1Nc1cnn2ccccc12` [Example 36, 3-(((1R,2R)-2-amino-3,3-difluorocyclohexyl)amino)-5-(pyrazolo[1,5-a]pyridin-3-ylamino)-1,2,4-triazine-6-carboxamide], the IC50 is 10 to 100 nM.

On to `COc1cc(Nc2nc(N[C@@H]3CCCC(F)(F)[C@@H]3N)nnc2C(N)=O)ccc1C` [Example 229, 3-(((1R,2R)-2-amino-3,3-difluorocyclohexyl)amino)-5-((3-methoxy-4-methylphenyl)amino)-1,2,4-triazine-6-carboxamide], for which the IC50 fell in the range of 10 to 100 nM.

Take `CC[C@@H](Nc1nnc(C(N)=O)c(Nc2ccc(C)c(C#N)c2)n1)C(N)=O` [Example 234, (R)-3-((1-amino-1-oxobutan-2-yl)amino)-5-((3-cyano-4-methylphenyl)amino)-1,2,4-triazine-6-carboxamide]: the IC50 fell in the range of 100 to 1000 nM.

Regarding `Cn1ncc2cc(Nc3nc(N[C@@H]4CCCC[C@@H]4N)nnc3C(N)=O)ccc21` [Example 109, 3-(((1R,2S)-2-aminocyclohexyl)amino)-5-((1-methyl-1H-indazol-5-yl)amino)-1,2,4-triazine-6-carboxamide], the IC50 was 1 to 10 nM.

`COc1cc(Nc2nc(N[C@H](CC(C)C)C(N)=O)nnc2C(N)=O)ccn1` [Example 186, (R)-3-(1-amino-4-methyl-1-oxopentan-2-ylamino)-5-(2-methoxypyridin-4-ylamino)-1,2,4-triazine-6-carboxamide]: the IC50 fell in the range of 10 to 100 nM.

Values taken from patent publication US9040530B2, “1,2,4-triazine-6-carboxamide kinase inhibitors” (Portola Pharmaceuticals, Inc., priority 2012, dated 2015).
